The results in this text go back to EP4806904A1, “POLYPEPTIDE AND USE THEREOF” (Sichuan Gooddoctor Panxi Pharmaceutical Co. Ltd, priority 2023, dated 2026).

Experiment [1] deals with primary neural stem cells (NSCs). Nature of the experiment: Differentiation of primary neural stem cells, βIII-tubulin fluorescence and Neurite Outgrowth Assay. It counts as cell-based, SD rats. Particulars: 100 µg/mL; for Neurite initiation points (branches) / mean fluorescence intensity of the neuronal marker protein βIII-tubulin / Average fluorescence intensity / neurite outgrowth (total neurite length, maximum neurite length, neurite terminals, neurite initiation points) / Longest neurite length / Number of neurite terminals / Total neurite length: 4 days; for Neurite initiation points (branches) / Average fluorescence intensity / Longest neurite length / Number of neurite terminals / Total neurite length: significance vs blank control group; for mean fluorescence intensity of the neuronal marker protein βIII-tubulin: vs blank control group; for mean fluorescence intensity of the neuronal marker protein βIII-tubulin / neurite outgrowth (total neurite length, maximum neurite length, neurite terminals, neurite initiation points): in words; for Average fluorescence intensity: βIII-tubulin; for neurite outgrowth (total neurite length, maximum neurite length, neurite terminals, neurite initiation points): Neurite Outgrowth Assay. As to the method: This part of the experiment requires feeding male and female rats in advance, then extracting hippocampal neural stem cells from newborn SD rats within 24 h of birth, culturing them to P3 for identification, and then using them for experiments. • (1) Extraction and culture of primary neural stem cells (NSCs) • (2) NSCs that have been passaged to P3 and have good viability were seeded in differentiation medium (2% FBS+DMEM/F12 1:1 medium) in 48-well plates with a cell concentration of 5×10^4 cells/mL per well. After overnight culture for cell adherence, the cells were treated with drugs; • (3) Drug treatment was applied. The final concentration of the polypeptide of the invention was 100 µg/mL. Meanwhile, nerve growth factor (NGF, 50 ng/mL) was set as the positive control, and the cells were cultured in the incubator for another 4 days; • (4) Immunofluorescence staining (primary antibody βIII-tubulin) was performed after 4 days of treatment. The average fluorescence intensity of βIII-tubulin was analyzed and the Neurite Outgrowth Assay was performed using a high-content cell imaging analysis system.

Experiment [2] deals with Brain microvascular endothelial cells (BMECs) and brain microvascular smooth muscle cells (BMVSMCs). Kind of experiment: In vitro angiogenesis assay, BMEC/BMVSMC co-culture on matrigel. Format: cell-based, mouse. The settings on record: 0.1 mg/L, 48 h. Here is the method:
First, mouse brain microvascular pellets were obtained by differential centrifugation. Brain microvascular endothelial cells (BMECs) and brain microvascular smooth muscle cells (BMVSMCs) were isolated by digestion with collagenase II, respectively, and cultured in a cell incubator with 5% CO2 at 37°C . Cells at passages 3-6 in good growth condition and logarithmic growth phase were selected for the in vitro angiogenesis assay.
One night before the experiment, the high-concentration matrigel was transferred from a -20°C or -80°C refrigerator to a 4°C refrigerator and allowed to thaw slowly overnight in the 4°C refrigerator. Pipette tips required for the formal experiment were sterilized in advance and pre-cooled in a 4°C refrigerator for subsequent use.
On the day of the experiment, the matrigel was added to a 96-well plate 1 h in advance and placed in a 37°C cell incubator until it solidified. Subsequently, the cells were washed 2 times with 2 mL of PBS buffer, followed by digestion with 0.25% trypsin to obtain EC and VSMC pellets, respectively, and cell counting was performed. A uniform cell suspension containing 5×10^3 BMVSMCs and 1×10^3 BMECs per well was then seeded into the 96-well plate pre-coated with the matrigel, and cultured in a 37°C, 5% CO2 cell incubator for 3 days.
During the culture period, tube formation was observed daily. The medium was changed on day 4, followed by treatment with the polypeptide of the invention at 0.1 mg/L or VEGFA at 10/15/20 ng/L for 48 h, respectively.
On day 5, the cell nuclei and live cells were labeled with Hoechst 33342 and Calcein AM, respectively. High-content brightfield and fluorescence imaging were then performed using a high-content screening system. Finally, angiogenesis in each treatment group was analyzed using the Angiogenesis Analyzer plugin for ImageJ, and statistical analysis was carried out with GraphPad Prism 10.

[3] abbreviates: significance vs blank control group.

Where a SMILES comes first, the peptide text is derived from it. [ ]: non-standard residue; d: D form.

On to “H-AKNQLPAPGTLQHFC-OH [Compound 24, H-Ala-Lys-Asn-Gln-Leu-Pro-Ala-Pro-Gly-Thr-Leu-Gln-His-Phe-Cys-OH]”, for which, in experiment [1], the “Neurite initiation points (branches)” value is “* (*p < 0.05)”, the “mean fluorescence intensity of the neuronal marker protein βIII-tubulin” value (from here on “mean fluorescence intensity”) was “significant increase” and the Average fluorescence intensity entry is on record as “* (*p < 0.05)”.
For the molecule `CC(C)C[C@H](NC(=O)[C@@H](NC(=O)CN)[C@@H](C)O)C(=O)O` [Compound 38, H-Gly-Thr-Leu-OH] (H-Gly-Thr-Leu-OH), the “mean fluorescence intensity” value in experiment [1] was “tendency to enhance”. Also, in experiment [2] (setting [3]), the Branch length result was “** (**p < 0.01)”, the Cell count result is “* (*p < 0.05)” and the Number of intersections entry is “** (**p < 0.01)”. The angiogenesis-promoting effects result in experiment [2] (vs normal group, in words) is reported as “exhibited angiogenesis-promoting effects”.
Regarding “H-ALPAPGT-OH [Compound 39, H-Ala-Leu-Pro-Ala-Pro-Gly-Thr-OH]”, in experiment [2] (setting [3]), the Branch length entry is “** (**p < 0.01)”, the Cell count result is recorded as “* (*p < 0.05)” and the Number of intersections result was “** (**p < 0.01)”. Further, in experiment [2] (vs normal group, in words), the angiogenesis-promoting effects result is “exhibited angiogenesis-promoting effects”.
Regarding “H-LPAPG-OH [Compound 33, H-Leu-Pro-Ala-Pro-Gly-OH]”, in experiment [2] (setting [3]), the Branch length result is “** (**p < 0.01)”, the Cell count entry is “** (**p < 0.01)” and the Number of intersections entry was “** (**p < 0.01)”. The angiogenesis-promoting effects entry in experiment [2] (vs normal group, in words) is recorded as “exhibited angiogenesis-promoting effects”.
In the case of `CC(=O)N[C@@H](C)C(=O)N[C@@H](CC(C)C)C(=O)N1CCC[C@H]1C(=O)N[C@H](C)C(=O)N1CCC[C@H]1C(=O)NCC(=O)N[C@H](C(=O)N[C@@H](CC(C)C)C(N)=O)[C@@H](C)O` [Compound 42, Ac-Ala-Leu-Pro-D-Ala-Pro-Gly-Thr-Leu-NH2] (Ac-ALP[dA]PGTL-NH2), in experiment [1], the “mean fluorescence intensity” value is recorded as “significant increase” and the Average fluorescence intensity entry is “* (*p < 0.05)”. Also, in experiment [2] (setting [3]), the Branch length entry is on record as “* (*p < 0.05)” and the Cell count result was “* (*p < 0.05)”. Moreover, in experiment [2] (vs normal group, in words), the Branch length result was “promoting effects” and the number of junctions result is on record as “no significant effects”.
In the case of “H-PAPGT-OH [Compound 27, H-Pro-Ala-Pro-Gly-Thr-OH]”, in experiment [1], the “neurite outgrowth (total neurite length, maximum neurite length, neurite terminals, neurite initiation points)” value (“neurite outgrowth” below) is recorded as “promote neurite outgrowth”; the Longest neurite length result is on record as “** (**p < 0.01)”; the “Neurite initiation points (branches)” value was “** (**p < 0.01)”; the “Number of neurite terminals” value was “* (*p < 0.05)”. The Total neurite length result in experiment [1] is on record as “* (*p < 0.05)”.
Turning to `CC(C)C[C@H](NC(=O)[C@@H](NC(=O)CNC(=O)[C@@H]1CCCN1C(=O)[C@H](C)NC(=O)[C@@H]1CCCN1C(=O)[C@H](CC(C)C)NC(=O)[C@@H](C)N)[C@@H](C)O)C(=O)O` [Compound 2, H-D-Ala-Leu-Pro-Ala-Pro-Gly-Thr-Leu-OH] (H-[dA]LPAPGTL-OH), in experiment [1], the Longest neurite length result is listed as “** (**p < 0.01)”, the “Neurite initiation points (branches)” value is “* (*p < 0.05)”, the “Number of neurite terminals” value is “** (**p < 0.01)” and the Total neurite length entry is given as “** (**p < 0.01)”. Also, in experiment [2] (setting [3]), the Branch length entry was “*** (***p < 0.001)”, the Cell count result is “* (*p < 0.05)” and the Number of intersections result is listed as “** (**p < 0.01)”. Moreover, the angiogenesis-promoting effects entry in experiment [2] (vs normal group, in words) is listed as “exhibited angiogenesis-promoting effects”.
“H-PIASQHLNLAPAPGTI-OH [Compound 23, H-Pro-Ile-Ala-Ser-Gln-His-Leu-Asn-Leu-Ala-Pro-Ala-Pro-Gly-Thr-Ile-OH]”: in experiment [1], the “neurite outgrowth” value was “tendency to promote neurite outgrowth”; the “Number of neurite terminals” value is “* (*p < 0.05)”; the Total neurite length result is “* (*p < 0.05)”; the “mean fluorescence intensity” value is reported as “tendency to enhance”.
Turning to “H-QLPAPGTL-OH [Compound 22, H-Gln-Leu-Pro-Ala-Pro-Gly-Thr-Leu-OH]”, in experiment [1], the “neurite outgrowth” value is “promote neurite outgrowth”; the Longest neurite length result was “* (*p < 0.05)”; the “Neurite initiation points (branches)” value was “* (*p < 0.05)”; the “Number of neurite terminals” value was “* (*p < 0.05)”. For the same molecule, the Total neurite length entry in experiment [1] is reported as “* (*p < 0.05)”. The Branch length entry in experiment [2] (setting [3]) is on record as “* (*p < 0.05)”. Besides, in experiment [2] (vs normal group, in words), the Branch length entry is “promoting effects” and the number of junctions result is on record as “no significant effects”.
For `CC(=O)N[C@@H](C)C(=O)N[C@@H](CC(C)C)C(=O)N1CCC[C@H]1C(=O)N[C@@H](C)C(=O)N1CCC[C@@H]1C(=O)NCC(=O)N[C@H](C(=O)N[C@@H](CC(C)C)C(N)=O)[C@@H](C)O` [Compound 41, Ac-Ala-Leu-Pro-Ala-D-Pro-Gly-Thr-Leu-NH2] (Ac-ALPA[dP]GTL-NH2), in experiment [1], the “neurite outgrowth” value is on record as “tendency to promote neurite outgrowth”; the “Neurite initiation points (branches)” value is given as “* (*p < 0.05)”; the Total neurite length result is listed as “* (*p < 0.05)”. In experiment [2] (setting [3]), the Branch length entry was “** (**p < 0.01)”, the Cell count result is “*** (***p < 0.001)” and the Number of intersections result is listed as “** (**p < 0.01)”. Moreover, in experiment [2] (vs normal group, in words), the angiogenesis-promoting effects entry was “exhibited angiogenesis-promoting effects”.
For “H-ALGAPGTL-OH [Compound 14, H-Ala-Leu-Gly-Ala-Pro-Gly-Thr-Leu-OH]”, in experiment [2] (setting [3]), the Cell count result was “* (*p < 0.05)” and the Number of intersections entry is on record as “* (*p < 0.05)”. Further, in experiment [2] (vs normal group, in words), the Branch length result is listed as “no significant effects” and the number of junctions result is on record as “promoting effects”.
As for `CC(C)C[C@H](NC(=O)[C@H](C)N)C(=O)N1CCC[C@H]1C(=O)N[C@@H](C)C(=O)O` [Compound 35, H-Ala-Leu-Pro-Ala-OH] (H-ALPA-OH), in experiment [1], the “neurite outgrowth” value is recorded as “promote neurite outgrowth”; the Longest neurite length result is “** (**p < 0.01)”; the “Neurite initiation points (branches)” value is “* (*p < 0.05)”; the “Number of neurite terminals” value is “* (*p < 0.05)”. In experiment [1], the Total neurite length entry is listed as “* (*p < 0.05)”, the “mean fluorescence intensity” value is listed as “significant increase” and the Average fluorescence intensity result is “* (*p < 0.05)”. Moreover, the “differentiation of NSCs into neuronal cells” value in experiment [1] (conclusion based on the results of the two analytical methods) is reported as “promote the differentiation of NSCs into neuronal cells with stable effects”. In addition, the Cell count entry in experiment [2] (setting [3]) is given as “** (**p < 0.01)”. Moreover, the cell proliferation entry in experiment [2] (vs normal group, in words) is on record as “only promoted cell proliferation”.
“H-QLPAPGTLQHF-OH [Compound 25, H-Gln-Leu-Pro-Ala-Pro-Gly-Thr-Leu-Gln-His-Phe-OH]”: in experiment [1], the “mean fluorescence intensity” value is recorded as “significant increase” and the Average fluorescence intensity entry is on record as “* (*p < 0.05)”. Further, in experiment [2] (setting [3]), the Cell count result is reported as “** (**p < 0.01)”. Also, in experiment [2] (vs normal group, in words), the cell proliferation result is on record as “only promoted cell proliferation”.
In the case of “Ac-ALPAPGTL-OH [Compound 9, Ac-Ala-Leu-Pro-Ala-Pro-Gly-Thr-Leu-OH]”, the Branch length result in experiment [2] (setting [3]) was “* (*p < 0.05)”. In experiment [2] (vs normal group, in words), the Branch length entry is “promoting effects” and the number of junctions result was “no significant effects”.
“H-LPAPGTL-OH [Compound 29, H-Leu-Pro-Ala-Pro-Gly-Thr-Leu-OH]”: the “mean fluorescence intensity” value in experiment [1] is given as “tendency to enhance”.
